One assay addresses T1, rM3Ds (Rattus norvegicus, UniProt P08483, A177S/A238G/A489L/DEL261-437/DEL441-478/E258S/I253V/I483M/INS256[…]/K178L/K182A/K255R/K484R/K486H/L173F/L482A/M480V/R171S/R176Q/R179M/S481M/T174R/T181R/T257A/Y148C).
T1 sequence (P08483 with tags, fused parts or gaps Y148C/R171S/L173F/T174R/R176Q/A177S/K178L/R179M/T181R/K182A/A238G/I253V/K255R/INS256[…]/T257A/E258S/DEL261-437/DEL441-478/M480V/S481M/L482A/I483M/K484R/K486H/A489L): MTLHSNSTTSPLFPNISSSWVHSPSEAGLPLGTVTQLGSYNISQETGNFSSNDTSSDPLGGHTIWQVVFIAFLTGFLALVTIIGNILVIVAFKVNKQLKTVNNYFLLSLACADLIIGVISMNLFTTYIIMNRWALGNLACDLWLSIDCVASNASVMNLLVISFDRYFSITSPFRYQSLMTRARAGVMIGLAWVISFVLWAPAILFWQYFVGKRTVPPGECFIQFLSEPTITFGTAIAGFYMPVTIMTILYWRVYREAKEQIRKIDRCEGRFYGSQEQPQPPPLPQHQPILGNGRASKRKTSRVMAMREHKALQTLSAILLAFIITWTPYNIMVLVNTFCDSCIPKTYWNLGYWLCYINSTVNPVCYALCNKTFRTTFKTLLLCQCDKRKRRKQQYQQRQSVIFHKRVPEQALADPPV
Briefly: Electrophysiological recording in caudate/putamen after intramuscular CNO, rM3Ds macaques. The class given is in vivo. As to the method:
(§1) Electrophysiological recording was performed through a recording chamber while the monkey was anesthetized. Neural responses were recorded by a 16-channel linear probe (Plexon Inc, Uprobe) driven by a mechanical microdrive (Alpha Omega, FlexMT). Signals were passed through a head stage (Plexon Inc, HST/16V-G20 LN) and then split and filtered between 300 Hz and 5 kHz to identify spiking activity with an amplifier system (Plexon Inc, OmniPlex). Detected spikes were then sorted by commercially available software (Plexon Inc, Offline Sorter) for further analysis. To quantify the effect of CNO/DCZ injection, neural activity was recorded for 60 minutes following CNO/DCZ injection. The response time-course for each channel was obtained by counting the spikes within every 10-minute window and then normalizing to the maximal.
To determine the effect of CNO/DCZ injection on the direction of signal change, we performed Pearson correlation between neural responses and time using the ‘corr’ function in Matlab, which generates the correlation coefficient ‘r’ and significant level ‘p’. A neuron was considered to have “Increased” activity when r>0 and p<[…]; and considered to have “Decreased” activity when r<0 and p<0.05. Otherwise, neurons were considered to be “Unchanged” in their neural activities. The responses of all increased neurons were then averaged after being normalized by the maximal response (Crowe et al., 2014; Dai and Wang, 2018; Hirokawa et al., 2019) following CNO/DCZ injection, and then plotted as a function of time to generate the normalized population response. […]

In the next assay the test system is hM3Dq or rM3Ds. Briefly: Locomotion test after nigral DREADD AAV and CNO in macaques. The class given is in vivo. Here is the method: To guide the virus injection in SNr, a guide grid of multiple holes spaced by 1 mm was installed on each subject vertically above the SN. By filling vitamin E in these holes, the accurate coordinates for injection could be obtained from the T1-weighted MRI images (3T Tim Trio scanner, Siemens). Virus injections were performed in nine sites covering the whole SNr, and a total volume of 27 μL virus was unilaterally injected in the right SNr at the speed of 300 nL/min.
To intracranially administrate drug and/or perform electrophysiological recording, a recording chamber covering from anterior caudate to posterior GPi was fixed on the skull with 6 titanium screws and dental cement. Each subject was allowed to recover from the surgery for at least 6 weeks prior to further studies.
The locomotion tests for monkeys were conducted in a custom-made observation cage (100 cm×100 cm×100 cm). The top and front of the cage were made of toughened glass in order to gain a clear view for behavioral recording. Monkeys were habituated to the observation cage by placing them inside for 30 minutes on three separate days.
For monkeys injected with AAV8R12-G88P3-HA-hM3Dq, CNO was intracranially infused into the dorsomedial caudate through the recording chamber. To infuse while the animal was awake, the monkey was trained to sit in a primate chair specially designed with its head fixed to the primate chair by a mask made of thermoplastic materials. Injections were conducted through a 33-Gauge needle connected to a 250 μL syringe via a polyethylene pipe (Hamilton, Neuros). […] The needle was held for 5 minutes for drug diffusion before retraction. […] Videos capturing the subjects' behavior were recorded for at least 90 minutes. Animal behaviors from 30-90 minutes after saline/CNO infusion were further analyzed and quantified.
For rotation analysis, only movements that occurred lower than 30 cm on the z-axis were counted. To determine the direction of the rotation, we first computed the center for the rotation data in the x-y plane as (x0, y0) by averaging all data points, and then we computed the angle relative to (x0, y0) for each time point by the following formula:
where θi represents the rotating angle at time i, and (xi, yi) represents the x-y coordinate at time i. We then calculated the change of rotating angle as Δθi=θi−θi-1. For right nigral injections, when Δθ<0, the direction of the rotation was anticlockwise and was labeled as a contraversive rotation. When Δθ>0, the direction of the rotation was clockwise and was labeled as an ipsiversive rotation. The raw data were analyzed and plotted through a custom R package. Code is available on Github (github.com/chenyef/PD_ana/blob/main/Behavior_ana.txt).

The subject of another assay is c-Fos+ cells in the SNr. The assay is described as follows: c-Fos staining in the SNr after CNO. The assay is classed as in vivo, mice. Conditions: AAV8R12-G88P3-HA-hM3Dq.
The next assay addresses T2, hM3Dq (Homo sapiens, UniProt P20309, A239G/Y149C).
T2 construct: HA (N); expressed in transfected cells; host or cells: neurons (striatal D1-MSNs, some SNr neurons) of C57BL/6J mice or cynomolgus macaques transduced by nigral AAV8R12-G88P3-HA-hM3Dq
The assay is described as follows: Electrophysiological recording in caudate after CNO infusion, AAV8R12-G88P3-HA-hM3Dq macaques. The assay is classed as in vivo. Here is the method:
as §1
To determine the effect of CNO/DCZ injection on the direction of signal change, we performed Pearson correlation between neural responses and time using the ‘corr’ function in Matlab, which generates the correlation coefficient ‘r’ and significant level ‘p’. A neuron was considered to have “Increased” activity when r>0 and p<[…]; and considered to have “Decreased” activity when r<0 and p<0.05. Otherwise, neurons were considered to be “Unchanged” in their neural activities. The responses of all increased neurons were then averaged after being normalized by the maximal response (Crowe et al., 2014; Dai and Wang, 2018; Hirokawa et al., 2019) following CNO/DCZ injection, and then plotted as a function of time to generate the normalized population response.

The mark [1] stands for this setting: 38 total cells in the caudate/putamen.
Setting [2] is: monkey CM048, 38 cells in caudate.
[3] abbreviates: intracranial or systemic CNO, n=4.
[4] abbreviates: monkey CM045, 34 cells in caudate.

The structures appear in SMILES notation.

T2 sequence (P20309 whole entry Y149C/A239G): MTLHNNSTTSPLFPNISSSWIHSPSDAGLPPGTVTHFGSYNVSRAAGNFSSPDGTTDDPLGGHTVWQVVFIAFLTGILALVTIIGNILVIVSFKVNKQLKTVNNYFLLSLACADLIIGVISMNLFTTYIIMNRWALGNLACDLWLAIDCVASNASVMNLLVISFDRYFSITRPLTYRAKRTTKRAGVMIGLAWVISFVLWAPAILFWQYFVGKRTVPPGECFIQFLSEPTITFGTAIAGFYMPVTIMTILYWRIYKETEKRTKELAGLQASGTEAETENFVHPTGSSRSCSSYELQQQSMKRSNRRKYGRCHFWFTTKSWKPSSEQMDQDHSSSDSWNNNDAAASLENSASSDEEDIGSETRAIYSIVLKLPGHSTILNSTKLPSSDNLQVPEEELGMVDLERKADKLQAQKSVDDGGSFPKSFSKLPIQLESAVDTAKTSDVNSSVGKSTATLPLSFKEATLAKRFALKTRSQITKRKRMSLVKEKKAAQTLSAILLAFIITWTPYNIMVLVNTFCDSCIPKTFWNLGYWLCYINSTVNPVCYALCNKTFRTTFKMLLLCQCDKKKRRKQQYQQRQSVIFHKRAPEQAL

With `C[N+]1([O-])CCN(C2=Nc3cc(Cl)ccc3Nc3ccccc32)CC1` [CNO, clozapine N-oxide], at rM3Ds (setting [1]), the “cells activated (FIG. 12N)” value amounted to 50%, the “cells inactivated (FIG. 12N)” value came out at 13.2% and the “cells unchanged (FIG. 12N)” value came to 36.8%. At rM3Ds (anesthetized macaques, AAV8R12-G88P7-HA-rM3Ds-2A-Cre), the “neuronal activity in retrogradely labeled D1-MSNs (opto-tagging)” value was “effectively induced an increase of neuronal activity”. On rM3Ds (setting [2]), the “cells activated (FIG. 12F)” value was 65.8%, the “cells inactivated (FIG. 12F)” value was determined as 7.9% and the “cells unchanged (FIG. 12F)” value is listed as 26.3%. Moreover, the “muscle tone of the contralateral biceps brachii (electromyogram)” value in the assay on hM3Dq or rM3Ds (following CNO infusions) is listed as “an increase in the muscle tone”. Further, in the assay on hM3Dq or rM3Ds (setting [3]), the “immobile time (FIG. 10E)” value turned out to be 89.13±8.379, the “speed during contraversive rotations (FIG. 10G)” value was determined as 46.98±6.669, the “total distance (FIG. 10F)” value amounted to 97.37±19.41 and the “velocity of ipsiversive rotations (FIG. 10H)” value is 41.37±6.566. Besides, the “c-Fos+ cells in the right SNr” value with c-Fos+ cells in the SNr (CNO intraperitoneal) was “significant increase”. In addition, the “number of nigral c-Fos+ cells” value in the assay with c-Fos+ cells in the SNr (intracranial CNO infusions) is listed as “No significant changes”. For the same compound, on hM3Dq (34 total cells in the caudate), the “cells activated (FIG. 12L)” value is listed as 67.6%, the “cells inactivated (FIG. 12L)” value amounted to 2.9% and the “cells unchanged (FIG. 12L)” value worked out at 29.4%. Also, on hM3Dq (setting [4]), the “cells activated (FIG. 12C)” value stood at 70.6%, the “cells inactivated (FIG. 12C)” value stood at 8.8% and the “cells unchanged (FIG. 12C)” value worked out at 20.6%.

Values taken from patent publication US20250382588A1, “CHIMERIC AAV AND USES THEREOF” (priority 2023, published 2025).
